Experimental data reported in article PMC8469395 (Pharmaceutics, 2021).
Like-named read-outs stand apart in the source and are kept apart here.

Columns and labels:
TR-iBRB2 cells [1] = experiment: Effect of compounds on [3H]amantadine uptake by TR-iBRB2 cells; format: in vitro ADME, rat
Method: (§1) In 10% fetal bovine serum (FBS; Merck, Darmstadt, Germany)-containing Dulbecco’s modified Eagle’s medium (DMEM; Nissui Pharmaceutical, Tokyo, Japan) with 20 mM NaHCO3, 0.19 mM benzylpenicillin potassium, and 0.14 mM streptomycin sulfate, TR-iBRB2 cells (passage number 32–60) were cultured according to previous reports. As described previously, RPE-J cells (passage number 79-92) were cultured in DMEM with 4% FBS, 20 mM NaHCO3, and 0.1 mM non-essential amino acid (FUJIFILM Wako Pure Chemical, Osaka, Japan) containing 0.16 mM benzylpenicillin potassium and 0.17 mM streptomycin sulfate. In accordance with established protocols for the uptake study, the cells were seeded at a density of 1.0 × 10^5 cells/well onto a collagen I-coated 24-well plate (BioCoat™ Collagen I Cellware, Corning, Corning, NY, USA) and cultured for 2 days, at 33 °C, under 5% CO2/air. Referring to the previous reports, we started the uptake reaction, and the details of the procedure are included in the Supplemental Materials.
(§2) Cell/medium ratio = [^3H]compound (dpm) per cell protein (mg)/[^3H]compound (dpm) per medium (µL)(2) […]
(§3) 7.4) three times at 37°C.
(§4) and KHCO3, respectively. Cl--free ECF buffer was prepared by replacing equimolar
(§5) protein assay kit (Bio-Rad, Hercules, CA, USA).

RPE-J cells [2] = experiment: Effect of compounds on [3H]amantadine uptake by RPE-J cells; format: in vitro ADME, rat
Method: as §1, §2, §3, §4, §5

TR-iBRB2 cells [3] = conditions: read-out: Km for uptake by TR-iBRB2 cells; cited from earlier work
RPE-J cells [4] = experiment: Verapamil uptake by RPE-J cells, effect of amantadine; format: in vitro ADME, rat
Method: as §1
Cell/medium ratio = [^3H]compound (dpm) per cell protein (mg)/[^3H]compound (dpm) per medium (µL)(2)
Kinetic parameters for cell uptake, such as the maximal uptake rate (Vmax), Michaelis–Menten constant (Km), and non-saturable uptake clearance (Kd), were obtained by using the nonlinear least-squares regression analysis program (MULTI) with Equations (3)–(5), where the uptake rate of the test compound and its concentration were V and S, respectively. V = (Vmax × S)/(Km + S)(3) V = (Vmax × S)/(Km + S) + Kd × S(4) V = (Vmax1 × S)/(Km1 + S) + (Vmax2 × S)/(Km2 + S)(5) […]
as §3, §4, §5

[5] = compound 0.2 mM, [3H]amantadine 1.67 µM, 3 min, 37 °C
[6] = compound 2.5 mM, [3H]amantadine 1.67 µM, 3 min, 37 °C
[7] = Rattus norvegicus, 0.05 h, read-out: [3H]amantadine uptake, % of Control, TR-iBRB2
[8] = Rattus norvegicus, 0.05 h, read-out: [3H]amantadine uptake, % of Control, RPE-J
[9] = compound 1.0 mM, [3H]amantadine 1.67 µM, 3 min, 37 °C

Row | SMILES | [3H]amantadine uptake, % of Control, TR-iBRB2 (TR-iBRB2 cells [1]; [5]) | [3H]amantadine uptake, % of Control, RPE-J (RPE-J cells [2]; [5]) | activity at 200 µM (TR-iBRB2 cells [1]; [7]) [%] | activity at 200 µM (RPE-J cells [2]; [8]) [%] | other results
1 | C[N+](C)(C)C[C@H](O)CC(=O)[O-] [L-Carnitine] | 111 ± 35 % of Control | 95.1 ± 5.2 % of Control |  |  | [3H]amantadine uptake, % of Control, TR-iBRB2 (TR-iBRB2 cells [1]; [6]): 99.5 ± 2.3 % of Control; [3H]amantadine uptake, % of Control, RPE-J (RPE-J cells [2]; [6]): 119 ± 28 % of Control
2 | N[C@@H](CCC(=O)O)C(=O)O [L-Glutamic acid] |  |  |  |  | activity at 2500 µM (TR-iBRB2 cells [1]; [7]): 80.2 ± 10%; activity at 2500 µM (RPE-J cells [2]; [8]): 84.5 ± 16.4%
3 | CC(C)C[C@H](N)C(=O)O [L-Leucine] |  |  |  |  | [3H]amantadine uptake, % of Control, TR-iBRB2 (TR-iBRB2 cells [1]; [6]): 112 ± 17 % of Control; [3H]amantadine uptake, % of Control, RPE-J (RPE-J cells [2]; [6]): 113 ± 16 % of Control
4 | C[n+]1ccc(-c2ccccc2)cc1 [MPP^+, 1-methyl-4-phenylpyridinium] | 106 ± 31 % of Control | 75.5 ± 5.0 % of Control |  |  | [3H]amantadine uptake, % of Control, RPE-J (RPE-J cells [2]; [9]): 91.9 ± 5.6 % of Control
5 | CC12CC3CC(C)(C1)CC(N)(C3)C2 [Memantine] |  |  | 16.7 ± 2.2 | 123 ± 38 | activity at 1000 µM (RPE-J cells [2]; [8]): 27.1 ± 2.6%
6 | Nc1ccc(C(=O)NCC(=O)O)cc1 [PAH, p-aminohippuric acid] |  |  | 85.8 ± 10.8 | 139 ± 33 | 
7 | CC(C)NCC(O)COc1cccc2ccccc12 (stereo not drawn) [Propranolol] | 8.61 ± 0.75 % of Control | 15.7 ± 5.9 % of Control |  |  | reduction of [3H]amantadine uptake by TR-iBRB2 cells (TR-iBRB2 cells [1]; compound 0.2 mM): more than 58%; Km (TR-iBRB2 cells [3]): 237 µM
8 | COc1ccc(CN(CCN(C)C)c2ccccn2)cc1 [Pyrilamine] |  |  | 20.9 ± 1.8 | 77.8 ± 38.4 | activity at 1000 µM (RPE-J cells [2]; [8]): 18.2 ± 1.7%
9 | CCc1nc(N)nc(N)c1-c1ccc(Cl)cc1 [Pyrimethamine] |  |  | 44.3 ± 8.8 | 88.9 ± 3.3 | 
10 | C=C[C@H]1C[N@@]2CC[C@H]1C[C@@H]2[C@@H](O)c1ccnc2ccc(OC)cc12 [Quinidine] | 13.7 ± 1.8 % of Control | 34.1 ± 3.0 % of Control |  |  | 
11 | NCCc1c[nH]c2ccc(O)cc12 [Serotonin] |  |  | 126 ± 60 | 158 ± 52 | 
12 | CC[N+](CC)(CC)CC [TEA, tetraethylammonium] |  | 87.7 ± 11.8 % of Control |  |  | [3H]amantadine uptake, % of Control, TR-iBRB2 (TR-iBRB2 cells [1]): 117 ± 45 % of Control; [3H]amantadine uptake, % of Control, RPE-J (RPE-J cells [2]; [9]): 81.8 ± 10.3 % of Control
13 | CC(C)(C)NC[C@H](O)COc1nsnc1N1CCOCC1 [Timolol] | 34.6 ± 10.6 % of Control | 59.1 ± 5.1 % of Control |  |  | 
14 | COc1ccc(CCN(C)CCCC(C#N)(c2ccc(OC)c(OC)c2)C(C)C)cc1OC (stereo not drawn) [Verapamil] |  |  |  |  | [3H]amantadine uptake, % of Control, TR-iBRB2 (TR-iBRB2 cells [1]): 22.1 ± 6.2 % of Control; [3H]amantadine uptake, % of Control, RPE-J (RPE-J cells [2]): 20.5 ± 4.8 % of Control; Km (RPE-J cells [4]): 55.6 ± 5.2 µM; Vmax (RPE-J cells [4]): 6.31 ± 0.35 nmol/(min·mg protein); reduction of [3H]verapamil uptake by unlabeled verapamil (RPE-J cells [4]): 86%
